“And” between values parts separate entries of the source, which are not always exact repeats. Identical values can stand only once. Inconclusive results and toxic doses are left out.
Test system: BDF1 mice, B16 melanoma ip, median survival T/C
Experiment: NCI In Vivo Anticancer Drug Screen. Data for tumor model B16 Melanoma (intraperitoneal) in B6D2F1 (BDF1) mice
Conditions: endpoint: median survival time, higher = longer survival
Method in brief: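 Compounds were tested in mice carrying transplantable tumors. Survival or tumor size was recorded, and each value is the treated-group measurement (T) divided by that of the vehicle-treated control group (C).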

[1] = dose: 25.0 mg/kg/injection, schedule: Q01DX009 (ip), vehicle: saline
[2] = dose: 80.0 mg/kg/injection, schedule: Q01DX009 (ip), vehicle: saline
[3] = dose: 100.0 mg/kg/injection, schedule: Q01DX009 (ip), vehicle: saline
[4] = dose: 200.0 mg/kg/injection, schedule: Q01DX009 (ip), vehicle: saline
[5] = dose: 50.0 mg/kg/injection, schedule: Q01DX009 (ip), vehicle: Klucel (hydroxypropylcellulose) (HPC)
[6] = dose: 100.0 mg/kg/injection, schedule: Q01DX009 (ip), vehicle: Klucel (hydroxypropylcellulose) (HPC)
[7] = dose: 200.0 mg/kg/injection, schedule: Q01DX009 (ip), vehicle: Klucel (hydroxypropylcellulose) (HPC)
[8] = dose: 400.0 mg/kg/injection, schedule: Q01DX009 (ip), vehicle: Klucel (hydroxypropylcellulose) (HPC)

`CC(C)NC(=O)N(c1ccccc1)c1ccccc1` was tested, and the T/C (dose: 75.0 mg/kg/injection, schedule: Q01DX009 (ip), vehicle: gum acacia) was 99 % of control, the T/C (dose: 150.0 mg/kg/injection, schedule: Q01DX009 (ip), vehicle: gum acacia) was 103 % of control and the T/C (dose: 300.0 mg/kg/injection, schedule: Q01DX009 (ip), vehicle: gum acacia) was 99 % of control.

For `OCC1OC(OC2(CO)OC(CO)C(O)C2O)C(O)C(O)C1O` (configuration not stated), the T/C (dose: 3.9 mg/kg/injection, schedule: Q01DX005 (ip), vehicle: saline) was 104 % of control, the T/C (dose: 7.81 mg/kg/injection, schedule: Q01DX005 (ip), vehicle: saline) was 87 % of control and the T/C (dose: 15.63 mg/kg/injection, schedule: Q01DX005 (ip), vehicle: saline) was 105 % of control. For the same compound, the T/C (dose: 31.25 mg/kg/injection, schedule: Q01DX005 (ip), vehicle: saline) was 104 % of control, the T/C (dose: 62.5 mg/kg/injection, schedule: Q01DX005 (ip), vehicle: saline) was 105 % of control and the T/C (dose: 125.0 mg/kg/injection, schedule: Q01DX005 (ip), vehicle: saline) was 105 % of control. For the same compound, the T/C (dose: 250.0 mg/kg/injection, schedule: Q01DX005 (ip), vehicle: saline) was 109 % of control, the T/C (dose: 500.0 mg/kg/injection, schedule: Q01DX005 (ip), vehicle: saline) was 105 % of control and the T/C (dose: 1000.0 mg/kg/injection, schedule: Q01DX005 (ip), vehicle: saline) was 104 % of control. The T/C (dose: 2000.0 mg/kg/injection, schedule: Q01DX005 (ip), vehicle: saline) was 102 % of control.

For `Nc1ccn(C2OC(CO)C(O)C2O)c(=O)n1` (configuration not stated), the T/C (dose: 6.25 mg/kg/injection, schedule: Q01DX009 (ip), vehicle: saline) was 120 % of control, the T/C [1] was 98 % of control and the T/C [2] was 71 % of control. For the same compound, the T/C [3] was 97 % of control, the T/C (dose: 100.0 mg/kg/injection, schedule: Q04DX003 (ip), vehicle: saline with Tween-80) was 100 % of control and the T/C [4] was 94 % of control. For the same compound, the T/C (dose: 200.0 mg/kg/injection, schedule: Q04DX003 (ip), vehicle: saline with Tween-80) was 92 % of control, the T/C (dose: 250.0 mg/kg/injection, schedule: Q04DX009 (ip), vehicle: saline) was 100 % of control and the T/C (dose: 400.0 mg/kg/injection, schedule: Q04DX003 (ip), vehicle: saline with Tween-80) was 92 % of control.

With `COc1cc2c[n+](C)c3c4cc5c(cc4ccc3c2cc1OC)OCO5` (tested in a mixture with another compound) the T/C (dose: 0.78 mg/kg/injection, schedule: Q01DX009 (ip), vehicle: distilled water + Tween-80) was 105 % of control, the T/C (dose: 1.56 mg/kg/injection, schedule: Q01DX009 (ip), vehicle: distilled water + Tween-80) was 97 % of control and the T/C (dose: 3.13 mg/kg/injection, schedule: Q01DX009 (ip), vehicle: distilled water + Tween-80) was 118 % of control. For the same compound, the T/C (dose: 5.0 mg/kg/injection, schedule: Q01DX009 (ip), vehicle: saline) was 116 % of control, the T/C (dose: 6.25 mg/kg/injection, schedule: Q01DX009 (ip), vehicle: Klucel (hydroxypropylcellulose) (HPC)) was 110 % of control and the T/C (dose: 12.5 mg/kg/injection, schedule: Q01DX009 (ip), vehicle: Klucel (hydroxypropylcellulose) (HPC)) was 124 % of control. The T/C (dose: 25.0 mg/kg/injection, schedule: Q01DX009 (ip), vehicle: Klucel (hydroxypropylcellulose) (HPC)) was 114 % of control, the T/C (dose: 40.0 mg/kg/injection, schedule: Q01DX009 (ip), vehicle: saline) was 159 % of control and the T/C [5] was 92 % of control. The T/C [2] was 98 % of control.

With `Cc1cc([N+](=O)[O-])c(S(N)(=O)=O)c([N+](=O)[O-])c1` the T/C (dose: 6.25 mg/kg/injection, schedule: Q01DX009 (ip), vehicle: water) was 110 % of control, the T/C (dose: 12.5 mg/kg/injection, schedule: Q01DX009 (ip), vehicle: water) was 100 % of control and the T/C (dose: 25.0 mg/kg/injection, schedule: Q01DX009 (ip), vehicle: water) was 101 % of control. The T/C (dose: 50.0 mg/kg/injection, schedule: Q01DX009 (ip), vehicle: water) was 103 % of control and the T/C (dose: 100.0 mg/kg/injection, schedule: Q01DX009 (ip), vehicle: water) was 101 % of control.

With `O=C(Nc1ccc([N+](=O)[O-])cc1)Nc1ccc([N+](=O)[O-])c(C(F)(F)F)c1` the T/C (dose: 6.25 mg/kg/injection, schedule: Q01DX009 (ip), vehicle: saline with Tween-80) was 100 % of control, the T/C (dose: 12.5 mg/kg/injection, schedule: Q01DX009 (ip), vehicle: saline with Tween-80) was 100 % of control and the T/C (dose: 25.0 mg/kg/injection, schedule: Q01DX009 (ip), vehicle: saline with Tween-80) was 90 % of control.

In the case of `NC(CCCC(=O)O)P(=O)(O)O` (configuration not stated), the T/C [5] is reported as 98 % of control and the T/C [6] is reported as 98 % of control.

With `C[Si](C)(C)Cc1ccccc1` the T/C [6] was 114 % of control and the T/C [7] was 109 % of control.

With `C/C(=N\[N+](C)(C)C)c1ccc(Br)cc1` the T/C [1] was 88 % of control, the T/C (dose: 50.0 mg/kg/injection, schedule: Q01DX009 (ip), vehicle: saline) was 102 % of control and the T/C [3] was 94 % of control.

For `COC(=O)Nc1nc2ccc(C(=O)c3ccccc3)cc2[nH]1`, the T/C (dose: 2.0 mg/kg/injection, schedule: Q04DX003 (ip), vehicle: saline with Tween-80) was 95 % of control, the T/C (dose: 4.0 mg/kg/injection, schedule: Q04DX003 (ip), vehicle: saline with Tween-80) was 106 % of control and the T/C (dose: 8.0 mg/kg/injection, schedule: Q04DX003 (ip), vehicle: saline with Tween-80) was 101 % of control. For the same compound, the T/C (dose: 15.0 mg/kg/injection, schedule: Q04DX003 (ip), vehicle: saline with Tween-80) was 114 % of control, the T/C (dose: 16.0 mg/kg/injection, schedule: Q04DX003 (ip), vehicle: saline with Tween-80) was 103 % of control and the T/C (dose: 200.0 mg/kg/injection, schedule: Q04DX003 (oral), vehicle: saline with Tween-80) was 115 % of control.

For `O=C1NC(=O)c2ccccc21`, the T/C [4] was 97 % of control and the T/C (dose: 400.0 mg/kg/injection, schedule: Q01DX009 (ip), vehicle: saline) was 95 % of control.

`N#CC(c1ccccc1)N1CCCCC1` (configuration not stated) was tested, and the T/C [5] was 93 % of control and the T/C [6] was 90 % of control.

With `CC1=CC(C)(C)Nc2ccc(CSc3ccccc3)cc21` the T/C (dose: 12.5 mg/kg/injection, schedule: Q01DX009 (ip), vehicle: saline + Tween-80 + alcohol) was 112 % of control, the T/C (dose: 25.0 mg/kg/injection, schedule: Q01DX009 (ip), vehicle: saline + Tween-80 + alcohol) was 117 % of control and the T/C (dose: 50.0 mg/kg/injection, schedule: Q01DX009 (ip), vehicle: saline + Tween-80 + alcohol) was 111 % of control. For the same compound, the T/C (dose: 100.0 mg/kg/injection, schedule: Q01DX009 (ip), vehicle: saline + Tween-80 + alcohol) was 96 % of control.

In the case of `COc1cc2c(cc1OC)/C(=C\C(=O)N1CCCC1=O)CCC2`, the T/C [6] is reported as 97 % of control, the T/C [7] is reported as 100 % of control and the T/C [8] is reported as 117 % of control.

For `NC(Cc1c[nH]c2ccc(N(CCCl)CCCl)cc12)C(=O)O` (configuration not stated), the T/C (dose: 0.25 mg/kg/injection, schedule: Q01DX009 (ip), vehicle: saline with Tween-80) was 159 % of control, the T/C (dose: 0.5 mg/kg/injection, schedule: Q01DX009 (ip), vehicle: saline with Tween-80) was 163 % of control and 185 % of control and the T/C (dose: 1.0 mg/kg/injection, schedule: Q01DX009 (ip), vehicle: saline with Tween-80) was 180 % of control and 226 % of control. For the same compound, the T/C (dose: 2.0 mg/kg/injection, schedule: Q01DX009 (ip), vehicle: saline with Tween-80) was 184 % of control.

`CCCC(CCC)(C(=O)OCC)C(=O)OCC` was tested, and the T/C [6] was 92 % of control, the T/C (dose: 100.0 mg/kg/injection, schedule: Q04DX003 (ip), vehicle: Klucel (hydroxypropylcellulose) (HPC)) was 105 % of control and the T/C [7] was 96 % of control. The T/C (dose: 200.0 mg/kg/injection, schedule: Q04DX003 (ip), vehicle: Klucel (hydroxypropylcellulose) (HPC)) was 97 % of control, the T/C [8] was 92 % of control and the T/C (dose: 400.0 mg/kg/injection, schedule: Q04DX003 (ip), vehicle: Klucel (hydroxypropylcellulose) (HPC)) was 91 % of control.

With `Cc1c(CNc2ccc(C(=O)NC(CC(=O)O)C(=O)O)cc2)ccc2nc(N)nc(N)c12` (configuration not stated) the T/C (dose: 0.02 mg/kg/injection, schedule: Q01DX009 (ip), vehicle: saline with Tween-80) was 94 % of control, the T/C (dose: 0.04 mg/kg/injection, schedule: Q01DX009 (ip), vehicle: saline with Tween-80) was 94 % of control and the T/C (dose: 0.04 mg/kg/injection, schedule: Q01DX009 (ip), vehicle: saline) was 103 % of control. The T/C (dose: 0.09 mg/kg/injection, schedule: Q01DX009 (ip), vehicle: saline with Tween-80) was 86 % of control, the T/C (dose: 0.09 mg/kg/injection, schedule: Q01DX009 (ip), vehicle: saline) was 100 % of control and the T/C (dose: 0.18 mg/kg/injection, schedule: Q01DX009 (ip), vehicle: saline with Tween-80) was 97 % of control. For the same compound, the T/C (dose: 0.19 mg/kg/injection, schedule: Q01DX009 (ip), vehicle: saline) was 111 % of control and the T/C (dose: 0.78 mg/kg/injection, schedule: Q01DX009 (ip), vehicle: saline with Tween-80) was 118 % of control.

Source: PubChem BioAssay AID192 (DTP/NCI, 2004)
